# Laboratory results published in patent US20220249534A1, “METHOD OF TREATING CANCER WITH NUCLEOTIDE THERAPEUTICS” (Massachusetts Institute of Technology, priority 2021, published 2022).
# Read-outs that look alike come from different tables or passages of the source.
# Tests used:
# [1] = Comet tail assay of DNA damage; format: cell-based; settings: 24 hours; small fraction of treated cells
# From the text: The cancer cell is contacted with that amount of purine, purine precursor, purine analog, pyrimidine, pyrimidine precursor, and/or pyrimidine which, once entering the cell, changes the cell's internal baseline purine:pyrimidine ratio and induces replication stress in the cell. The induction of replication stress can be measured, in any way known in the art, e.g., with the Comet assay which measures DNA damage. In this assay, cells are mixed in low melting point agarose on a microscope slide and are lysed with a detergent, e.g., 1% N-lauryl sarcosine, 0.5% Triton X-100, DMSO, and high salt, e.g., 2.5 M NaCl, 0.1 M EDTA and 10 mM Tris, to form nucleoids containing supercoiled loops of DNA that are linked to the nuclear matrix. After electrophoresis at high pH structures can be observed resembling comets, visualized by fluorescence microscopy. The intensity of the comet tail relative to the head is proportional to the number of breaks in the DNA. Comets can be scored with dedicated software such as, but not limited to, CaspLab software or OpenComet software.
# H1299 cells = test: Proliferation rate of H1299 cells with added single nucleoside/base; format: cell-based; settings: Homo sapiens
# Description: (§1) This effect was dose-titratable over a 0.1 mM to 2.0 mM range, with increasing concentrations of multiple single nucleotides completely preventing cell proliferation.
# (§2) In Table 1, the approximate concentration of each nucleotide that when added slows the proliferation of the indicated cells by half is shown.
# (§3) All adherent and human leukemia cell lines were cultured in DMEM or RPMI supplemented with 10% heat inactivated fetal bovine serum at 37° C. with 5% CO2. The Lys-GFP-ER-HoxA9 63.3 cells were cultured in RPMI supplemented with 10% fetal bovine serum, stem cell factor, and beta-estradiol as described previously (Sykes et al., (2016), Cell. 167(1): 171-186.e15). All cell lines regularly tested negative for mycoplasma.
# (§4) To assess proliferation, the number of cells seeded for each cell line allowed for exponential growth over the course of the assay. To assess effects of nucleotide treatment, cells were washed three times with PBS and 4 mL of treatment media was added one day after plating cells. The following formula was used to calculate proliferation rate:
# (§5) Doublings per day=[Log2(Final day 4 cell count/Initial day 0 cell count)]/4 days
# A2780 cells = test: Proliferation rate of A2780 cells with added single nucleoside/base; format: cell-based; settings: Homo sapiens
# Description: as §1, §2, §3, §4, §5
# U2OS cells = test: Proliferation rate of U2OS cells with added single nucleoside/base; format: cell-based; settings: Homo sapiens, read-out: Added nucleoside/base concentration that slows proliferation by half
# Description: as §1, §2, §3, §4, §5
# 143B cells = test: Proliferation rate of 143B cells with added single nucleoside/base; format: cell-based; settings: Homo sapiens, read-out: Added nucleoside/base concentration that slows proliferation by half
# Description: as §1, §2, §3, §4, §5
# A549 cells [2] = test: LCMS analysis of intracellular nucleotide levels in A549 cells; format: cell-based, human
# Description: Where indicated, cells were incubated in media with 4 mM ^15N-amide-glutamine and/or 200 μM ^13C-guanine or ^13C-adenine for 24 hours prior to LCMS Analysis of metabolites. For assessment of metabolites, cells were washed three times with PBS prior to extracting polar metabolites from cells: plates were placed on ice, cells were washed with ice-cold blood bank saline, and 500 μl of ice-cold 80% methanol in water with 250 nM ^13C/^15N labeled amino acid standards (MSK-A2-1.2: Cambridge Isotope Laboratories, Inc.) was added to each well. Cells were scraped, each sample was vortexed for 10 minutes at 4° C., and then centrifuged at maximum speed for 10 minutes at 4° C. Samples were dried under nitrogen gas and resuspended in 25 μl of a 50/50 acetonitrile/water mixture. Metabolites were measured using a Dionex UltiMate 3000 ultra-high performance liquid chromatography system connected to a Q Exactive benchtop Orbitrap mass spectrometer, equipped with an Ion Max source and a HESI II probe (Thermo Fisher Scientific). […]
# Metabolites were monitored in full-scan, polarity-switching, mode. […] Relative quantitation of metabolites was performed with XCalibur QuanBrowser 2.2 (Thermo Fisher Scientific) using a 5 ppm mass tolerance and referencing an in-house retention time library of chemical standards. […]
# A549 cells [3] = test: Proliferation rate of A549 cells with added single nucleoside/base; format: cell-based, human; settings: for IC50: Homo sapiens
# Description: as §1, §2, §3, §4, §5
# MDA-MB-468 cells = test: Proliferation rate of MDA-MB-468 cells with added single nucleoside/base; format: cell-based; settings: Homo sapiens
# Description: as §1, §2, §3, §4, §5
# Chk1 and Chk2 = test: Replication stress signaling: phosphorylation of ATR/ATM targets Chk1 and Chk2; format: cell-based; settings: stronger signaling at higher concentrations
# From the text: To determine if nucleotide imbalance causes replication stress in a cancer cell, targets of the ATR and ATM kinases were examined after the addition of a nucleotide to change the internal nucleotide ratio. The ATR and ATM kinases are components of the cellular response to DNA damage, and sense single-stranded DNA and DNA double-strand breaks, respectively. The respective targets of ATR and ATM, Chk1 and Chk2, are major effectors of the DNA damage response. […] The appearance of p-Chk1 occurred first between 12 hours and 24 hours of guanine treatment, followed by the appearance of p-Chk2 between 48 hours and 72 hours. Induction of the replication stress response was reversed by addition of adenine together with guanine. A similar induction of ATR and ATM signaling occurred with any excess nucleotide supplementation that impaired S phase progression, but not with leucine deprivation, consistent with impaired DNA replication. Inhibiting total purine or pyrimidine synthesis induced phosphorylation of Chk1 and Chk2 but to a lesser extent than Guanosine treatment.
# 63.3 cells = test: Differentiation of Lys-GFP-ER-HoxA9 63.3 cells by flow cytometry; format: cell-based; settings: 10^-3 to 10^-7 M, FIG. 4A
# Description: (§6) That exogenous nucleotides can direct cancer cells to undergo differentiation was determined as follows. Thymidine was added at concentrations ranging from 10^−3 to 10^−7 M to 63.3 cells (FIG. 4A), THP1 cells (FIG. 4B) and U937 cells (FIG. 4C). Cell differentiation was monitored by CD11b+/CD16+ expression, and by CD11b+ total expression.
# as §3
# (§7) The Lys-GFP-ER-HoxA9 cells or human leukemia cell lines were grown in round-bottom tissue-culture treated plates. Following a 4-day incubation with nucleotides, cells were incubated with antibodies, washed, incubated with FACS buffer containing DAPI, and analyzed by flow cytometry. Viability was assessed by forward and side scatter as well as by DAPI exclusion. For the Lys-GFP-ER-HoxA9 63.3 cells, differentiation was assessed by GFP and staining with an anti-CD11b-APC antibody (final concentration of 1:400; Clone M1/70, Biolegend). […]
# U937 cells = test: Differentiation of U937 cells by flow cytometry; format: cell-based, human; settings: 10^-3 to 10^-7 M, FIG. 4C
# Description: as §6, §3, §7
# THP1 cells = test: Differentiation of THP1 cells by flow cytometry; format: cell-based, human; settings: 10^-3 to 10^-7 M, FIG. 4B
# Description: as §6, §3, §7
# [4] = NCI-H1299, H1299 cells, approximate concentration, read-out: Added nucleoside/base concentration that slows proliferation by half
# [5] = A2780 cells, approximate concentration, read-out: Added nucleoside/base concentration that slows proliferation by half
# [6] = U2OS cells, approximate concentration
# [7] = 143B cells, approximate concentration
# [8] = A549 cells, approximate concentration, read-out: Added nucleoside/base concentration that slows proliferation by half
# [9] = MDA-MB-468 cells, approximate concentration, read-out: Added nucleoside/base concentration that slows proliferation by half
SMILES,IC50 (H1299 cells; [4]) [µM],IC50 (A2780 cells; [5]) [µM],IC50 (U2OS cells; [6]) [µM],IC50 (143B cells; [7]) [µM],IC50 (A549 cells [3]; [8]) [µM],IC50 (MDA-MB-468 cells; [9]) [µM],other results
"Nc1nc2nc[nH]c2c(=O)[nH]1 [G, guanine]",,,,,,,"DNA damage by comet tail assay [1]: minor increases in DNA damage; IC50 (H1299 cells; NCI-H1299, read-out: Added nucleoside/base concentration that slows proliferation by half): 200 µM; IC50 (A2780 cells; A2780, read-out: Added nucleoside/base concentration that slows proliferation by half): 100 µM; IC50 (U2OS cells; U2OS): 250 µM; IC50 (143B cells; 143B): 120 µM; Intracellular pools of guanylate nucleotides (GTP/GDP/GMP) (A549 cells [2]; FIGS. 2A and 3A-3B): dramatically increased; Intracellular levels of adenylate nucleotides (ATP/ADP/AMP) (A549 cells [2]; FIGS. 2B and 3C-3D): decreased; IC50 (A549 cells [3]; A549, read-out: Added nucleoside/base concentration that slows proliferation by half): 80 µM; IC50 (MDA-MB-468 cells; MDA-MB-468, read-out: Added nucleoside/base concentration that slows proliferation by half): 150 µM; Phosphorylation of Chk1 and Chk2 (replication stress response) (Chk1 and Chk2): robust phosphorylation"
"Nc1ncnc2c1ncn2[C@@H]1O[C@H](CO)[C@@H](O)[C@H]1O [A, adenosine]",1100,1000,950,1000,2100,800,
"Cc1cn([C@H]2C[C@H](O)[C@@H](CO)O2)c(=O)[nH]c1=O [T, thymidine]",700,300,500,,500,150,Cell differentiation (CD11b+ markers) (63.3 cells): induced cell differentiation in a concentration dependent manner; Cell differentiation (CD11b+/CD16+ and CD11b+ total expression) (U937 cells): induced cell differentiation in a concentration dependent manner; Cell differentiation (CD11b+/CD16+ and CD11b+ total expression) (THP1 cells): induced cell differentiation in a concentration dependent manner
"Nc1ncnc2c1ncn2[C@H]1C[C@H](O)[C@@H](CO)O1 [dA, deoxyadenosine]",800,300,600,600,1200,225,
Nc1ccn([C@H]2C[C@H](O)[C@@H](CO)O2)c(=O)n1 [Deoxycytidine],,,,,,,"Effect on proliferation (A549 cells [3]; A549 cells, FIG. 1B, higher concentrations): blocked proliferation"
